Read-outs that look alike come from different tables or passages of the source.
Tests used:
tumor cell = assay: Matrigel outgrowth assay/branching assay (Table Va); format: cell-based
Protocol: The Matrigel outgrowth assay is based on the ability of tumor cell to penetrate a solid gel of extracellular matrix proteins mimicking the metastasis formation in vivo. While cells with low invasive potential appear as roundish cell or cell cluster, cells with high invasive potential penetrate the Matrigel and form polymorphic structures. In detail 65 μl of Matrigel matrix (Matrigel™ Matrix, BD Biosciences, Bedford, Mass., USA) with a concentration of 3 mg/ml have been polymerized in 96 well plates for 1 h at 37° C. Subsequently 5000 cell/well were seeded into each well containing cell culture medium and indicated compound with concentrations of 3.125 μM, 1.56 μM and 0.78 μM as well as DMSO control. After 48 h, 72 h and 96 h images of cell were taken on an inverted microscope using a 5× objective (Zeiss Axiovert S100 microscope Carl Zeiss UK, Welwyn Garden City, UK). Only compound concentrations were total branching inhibition was evident were accounted as positive. Method was used as previously described, with some modifications (Thompson E W, et al. Association of increased basement membrane invasiveness with absence of estrogen receptor and expression of vimentin in human breast cancer cell lines. J Cell Physiol 1992; 150:534-44).

cells = assay: Boyden chamber migration assay (Table VI); format: cell-based; conditions: Homo sapiens, Hs-578T, 16 h, Hs578T cells; 16 h migration
Protocol: The Boyden chamber assay is based on a chamber of two medium-filled compartments separated by a microporous membrane of 8 μM (Cell culture insert 8.0 μM pore size, BD Biosciences, Bedford, Mass.). The boyden chamber migration assays were carried out according to the supplier's instructions. In general, 20000 cells are placed in the upper compartment with medium containing 0% FCS plus 0.1% BSA and are allowed to migrate 16 h through the pores of the membrane into the lower compartment, which is filled with cell culture medium containing 10% FCS as chemotactic agents. The cells remaining in the insert were removed with a cotton swab, and the cells on the bottom of the filter were fixed and counted. (Zhang Y X, et al. AXL is a potential target for therapeutic intervention in breast cancer progression. Cancer Res. 2008; 68:1905-15).

viable cells in culture = assay: Cell viability assay at 10 μM (CellTiter-Glo, Table VII); format: cell-based; conditions: compound 10 μM, 72 h;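 also: graded A 0-20%; B 21-40%; C 41-60%; D over 60% viable cells relative to DMSO control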
Protocol: The CellTiter-Glo® Luminescent Cell Viability Assay (Promega Corporation. Madison, Wis., USA) is method a determining the number of viable cells in culture based on quantification of the ATP being present which is an indicator of metabolically active cells was used according to manufacturers protocol. In detail the assay was performed in a 96 well format were 1000 cells/well were incubated with compound at concentration 10 μM as well as DMSO control for 72 h in 100 μl cell culture medium. Percentage of inhibition was calculated compared to ATP amount of DMSO control.

indicated cell line = assay: Wound healing migration assay (Table IV); format: cell-based; conditions: compounds at 12.5, 6.25, 3.125 μM, 48 h-72 h
Protocol: This method mimics cell migration during wound healing in vivo. The basic steps involve creating a “wound” in a cell monolayer, capturing the images at the beginning and at regular intervals during cell migration to close the wound, and comparing the images to quantify the migration rate of the cells. In detail, 150000 cell/24 well have been seeded and allowed to form a monolayer overnight. Subsequently a “wound” or “scratch” has been performed with a 1000 μl pipette tip. The STDV of wound size is normally below 10% at time point t0. The assay was stopped by fixation with 0.05% Crystal violet/20% methanol when control scratches were closed. The assay was terminated between 48 h and 72 h depending on the migration potential of the indicated cell line. The “wounds” were visualized with a Zeiss Axiovert S100 microscope (Carl Zeiss UK, Welwyn Garden City, UK). The tested compounds were used at 12.5 μM, 6.25, 3.125 μM and DMSO control. IC50 values have been calculated as 50% wound size in between t0 and t48 or t72.

Hs578T = assay: Apoptosis assay (Cellomics, nucleus condensation); format: cell-based; conditions: Homo sapiens, Hs-578T, Table III, read-out: Apoptosis induction in Hs578T
Source text: (§1) The Cellomics BioApplication (Thermo Fischer Cellomics Products, Pittsburgh, Pa.) is an automated image analysis algorithm that provides detailed analysis of phenotypes related to apoptosis. As one of the most prominent characteristics of apoptotics cell a nucleus condensation takes place. This can be measured fluorescence signal intensity using a CCD camera on fully automated microscope system. The Cellomics system is able to quantify the fluorescence intensity per single nucleus and calculates the variation of signal intensity in each cell population. […] Additionally the number of detected cell decreases normally in apoptotic cell populations. In detail 5000 cell per 96 well were labeled with DNA intercalating dye (Hoechst 33342, Sigma, Steinheim, Germany) to visualize the nucleus in a fluorescence microscope under live conditions. The apoptosis assay was performed 24 h and 48 h after addition of compound at concentrations 12.5 μM, 6.25 μM, 3.125 μM, 1.56 μM, 0.78 μM, 0.39 μM as well as DMSO control for 48 h.

C8161 = assay: Apoptosis assay (Cellomics, nucleus condensation); format: cell-based; conditions: Homo sapiens, Table III, read-out: Apoptosis induction in C8161
Source text: as §1

SF126 = assay: Apoptosis assay (Cellomics, nucleus condensation); format: cell-based; conditions: Homo sapiens, SF-126, Table III, read-out: Apoptosis induction in SF126
Source text: as §1

U138 = assay: Apoptosis assay (Cellomics, nucleus condensation); format: cell-based; conditions: Table III, read-out: Apoptosis induction in U138
Source text: as §1

SF763 = assay: Apoptosis assay (Cellomics, nucleus condensation); format: cell-based; conditions: Table III, read-out: Apoptosis induction in SF763
Source text: as §1

U118 = assay: Apoptosis assay (Cellomics, nucleus condensation); format: cell-based; conditions: Table III, read-out: Apoptosis induction in U118
Source text: as §1

[1] = Homo sapiens, C8161 cells, read-out: Total branching inhibition in Matrigel C8161
[2] = Homo sapiens, Hs-578T, Hs578T cells, read-out: Total branching inhibition in Matrigel Hs578T
[3] = U118 cells, read-out: Total branching inhibition in Matrigel U118
[4] = U138 cells, read-out: Total branching inhibition in Matrigel U138
[5] = Homo sapiens, HCT-116, HCT116 def, read-out: percentage (%) of viable cells HCT 116def
[6] = Homo sapiens, HCT-116, HCT116 wt, read-out: percentage (%) of viable cells HCT 116wt
[7] = Homo sapiens, HT-29, HT29, read-out: percentage (%) of viable cells HT29
[8] = Homo sapiens, NCI-H358, H358, read-out: percentage (%) of viable cells H358
[9] = Homo sapiens, NCI-H1650, H1650, read-out: percentage (%) of viable cells H1650
[10] = Homo sapiens, NCI-H1666, H1666, read-out: percentage (%) of viable cells H1666
[11] = Homo sapiens, NCI-H1975, H1975, read-out: percentage (%) of viable cells H1975
[12] = Homo sapiens, NCI-H1993, H1993, read-out: percentage (%) of viable cells H1993
[13] = Homo sapiens, A549, read-out: percentage (%) of viable cells A549
[14] = Homo sapiens, HCC827, read-out: percentage (%) of viable cells HCC827
[15] = Homo sapiens, SW480, read-out: percentage (%) of viable cells SW480
[16] = RKO, read-out: percentage (%) of viable cells RKO
[17] = Homo sapiens, C8161 cells, read-out: IC50 Wound healing Assay C8161
[18] = SF763 cells, read-out: IC50 Wound healing Assay SF763

| Structure (SMILES) | IC50 (tumor cell; [1]) [µM] | IC50 (tumor cell; [2]) [µM] | IC50 (tumor cell; [3]) [µM] | IC50 (tumor cell; [4]) [µM] | IC50 (cells) [µM] | viability at 10 µM (viable cells in culture; [5]) [%] | viability at 10 µM (viable cells in culture; [6]) [%] | viability at 10 µM (viable cells in culture; [7]) [%] | viability at 10 µM (viable cells in culture; [8]) [%] | viability at 10 µM (viable cells in culture; [9]) [%] | viability at 10 µM (viable cells in culture; [10]) [%] | viability at 10 µM (viable cells in culture; [11]) [%] | viability at 10 µM (viable cells in culture; [12]) [%] | viability at 10 µM (viable cells in culture; [13]) [%] | viability at 10 µM (viable cells in culture; [14]) [%] | viability at 10 µM (viable cells in culture; [15]) [%] | viability at 10 µM (viable cells in culture; [16]) [%] | IC50 (indicated cell line; [17]) [µM] | IC50 (indicated cell line; [18]) [µM] | IC50 (Hs578T) [µM] | other results |
| --- | --- | --- | --- | --- | --- | --- | --- | --- | --- | --- | --- | --- | --- | --- | --- | --- | --- | --- | --- | --- | --- |
| COc1cc2c(Oc3ccc(NS(=O)(=O)c4cc(F)ccc4F)cc3F)ccnc2cc1OCC1CCCNC1 (centres unmarked) [Example 80, 2,5-Difluoro-N-{3-fluoro-4-[6-methoxy-7-(piperidin-3-ylmethoxy)-quinolin-4-yloxy]-phenyl}-benzenesulfonamide] | ≤ 5 | ≤ 5 | ≤ 5 | 5 to 50 | ≤ 5 | 21 to 40 | 21 to 40 | 41 to 60 | 0 to 20 | > 60 | 21 to 40 | 0 to 20 | 0 to 20 | > 60 | 21 to 40 | 0 to 20 | 0 to 20 | ≤ 12.5 | ≤ 12.5 | ≤ 12.5 | IC50 (C8161): 12.5 to 50 µM; IC50 (SF126): 12.5 to 50 µM; IC50 (U138): 12.5 to 50 µM; IC50 (SF763): 12.5 to 50 µM; IC50 (U118): ≤ 12.5 µM |
| COc1cc2c(Oc3ccc(NS(=O)(=O)c4ccc(F)cc4F)cc3F)ccnc2cc1OCCCN1CCN(C)CC1 [Example 16, 2,4-Difluoro-N-(3-fluoro-4-{6-methoxy-7-[3-(4-methyl-piperazin-1-yl)-propoxy]-quinolin-4-yloxy}-phenyl)-benzenesulfonamide] | ≤ 5 | 5 to 50 | 5 to 50 | ≤ 5 | ≤ 5 | 41 to 60 | 41 to 60 | 21 to 40 | 0 to 20 | 21 to 40 | 41 to 60 | 0 to 20 | 21 to 40 | 41 to 60 | 41 to 60 | 0 to 20 | 21 to 40 | 12.5 to 50 | 12.5 to 50 | ≤ 12.5 | melting point: 99 to 102 °C; IC50 (C8161): ≤ 12.5 µM; IC50 (SF126): ≤ 12.5 µM; IC50 (U138): ≤ 12.5 µM; IC50 (SF763): ≤ 12.5 µM |
